Measured values published in US20100041089A1, “IMPROVED METHOD FOR DETECTING CHEMICAL […]” (priority 2006, published 2010).

Test system: yeast genes (expressed mRNA)
Assay: DNA chip measurement of expressed mRNA of yeast genes after culture with a toxic chemical substance
Assay type: cell-based, Saccharomyces cerevisiae S288C
Conditions: for The level of expressed mRNA in the presence of chemical substance/The level of expressed mRNA in the absence of chemical substance: cultured two hours with substance; for level of expressed mRNA in the presence of chemical substance / level in the absence of chemical substance: cultured two hours with the chemical substance
How it was run: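 S. cerevisiae S288C grown at 25 °C in YPD, exposed in log phase for 2 h to a toxicant at growth-inhibiting, non-lethal concentration. Cy3/Cy5-labelled cDNA from poly(A) mRNA hybridized to whole-genome chip at 65 °C >12 h. Ratio to untreated control, ≥2 significant.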

Structure (SMILES): Cl[C@H]1[C@H](Cl)[C@@H](Cl)[C@@H](Cl)[C@H](Cl)[C@H]1Cl [(7), γ-Hexachlorocyclohexane]
- The level of expressed mRNA in the presence of chemical substance/The level of expressed mRNA in the absence of chemical substance (yeast gene YJL151C): 1.4
- The level of expressed mRNA in the presence of chemical substance/The level of expressed mRNA in the absence of chemical substance (yeast gene YJL152W): 1.2
- The level of expressed mRNA in the presence of chemical substance/The level of expressed mRNA in the absence of chemical substance (yeast gene YJL161W): 3.6
- The level of expressed mRNA in the presence of chemical substance/The level of expressed mRNA in the absence of chemical substance (yeast gene YJL171C): 1.4
- The level of expressed mRNA in the presence of chemical substance/The level of expressed mRNA in the absence of chemical substance (yeast gene YJR008W): 2.9
- level of expressed mRNA in the presence of chemical substance / level in the absence of chemical substance (yeast gene YJR030C): 0.7
- The level of expressed mRNA in the presence of chemical substance/The level of expressed mRNA in the absence of chemical substance (yeast gene YJR054W): 0.9
- level of expressed mRNA in the presence of chemical substance / level in the absence of chemical substance (yeast gene YKL051W): 0.6
- The level of expressed mRNA in the presence of chemical substance/The level of expressed mRNA in the absence of chemical substance (yeast gene YKL071W): 3.7
- The level of expressed mRNA in the presence of chemical substance/The level of expressed mRNA in the absence of chemical substance (yeast gene YKL086W): 0.7
- level of expressed mRNA in the presence of chemical substance / level in the absence of chemical substance (yeast gene YKL097C): 0.8
- level of expressed mRNA in the presence of chemical substance / level in the absence of chemical substance (yeast gene YKL100C): 1.2
- The level of expressed mRNA in the presence of chemical substance/The level of expressed mRNA in the absence of chemical substance (yeast gene YKL151C): 5.6
- The level of expressed mRNA in the presence of chemical substance/The level of expressed mRNA in the absence of chemical substance (yeast gene YKL153W): 1.1
- The level of expressed mRNA in the presence of chemical substance/The level of expressed mRNA in the absence of chemical substance (yeast gene YKL195W): 2.1
- level of expressed mRNA in the presence of chemical substance / level in the absence of chemical substance (yeast gene YKR040C): 0.9
- The level of expressed mRNA in the presence of chemical substance/The level of expressed mRNA in the absence of chemical substance (yeast gene YKR091W): 1.3
- The level of expressed mRNA in the presence of chemical substance/The level of expressed mRNA in the absence of chemical substance (yeast gene YLR054C): 1.1
- The level of expressed mRNA in the presence of chemical substance/The level of expressed mRNA in the absence of chemical substance (yeast gene YLR149C): 1.6
- The level of expressed mRNA in the presence of chemical substance/The level of expressed mRNA in the absence of chemical substance (yeast gene YLR152C): 1.4
- The level of expressed mRNA in the presence of chemical substance/The level of expressed mRNA in the absence of chemical substance (yeast gene YLR194C): 1.0
- level of expressed mRNA in the presence of chemical substance / level in the absence of chemical substance (yeast gene YLR226W): 1.9
- The level of expressed mRNA in the presence of chemical substance/The level of expressed mRNA in the absence of chemical substance (yeast gene YLR324W): 1.0
- level of expressed mRNA in the presence of chemical substance / level in the absence of chemical substance (yeast gene YLR338W): 0.9
- The level of expressed mRNA in the presence of chemical substance/The level of expressed mRNA in the absence of chemical substance (yeast gene YLR350W): 1.2
- The level of expressed mRNA in the presence of chemical substance/The level of expressed mRNA in the absence of chemical substance (yeast gene YLR387C): 1.1
- level of expressed mRNA in the presence of chemical substance / level in the absence of chemical substance (yeast gene YLR392C): 1.0
- level of expressed mRNA in the presence of chemical substance / level in the absence of chemical substance (yeast gene YLR415C): 1.2
- level of expressed mRNA in the presence of chemical substance / level in the absence of chemical substance (yeast gene YLR427W): 1.2
- The level of expressed mRNA in the presence of chemical substance/The level of expressed mRNA in the absence of chemical substance (yeast gene YLR460C): 1.1
- level of expressed mRNA in the presence of chemical substance / level in the absence of chemical substance (yeast gene YML013W): 1.3
- level of expressed mRNA in the presence of chemical substance / level in the absence of chemical substance (yeast gene YML029W): 1.1
- level of expressed mRNA in the presence of chemical substance / level in the absence of chemical substance (yeast gene YML041C): 1.4
- level of expressed mRNA in the presence of chemical substance / level in the absence of chemical substance (yeast gene YML079W): 1.2
- The level of expressed mRNA in the presence of chemical substance/The level of expressed mRNA in the absence of chemical substance (yeast gene YML117W): 0.7
- The level of expressed mRNA in the presence of chemical substance/The level of expressed mRNA in the absence of chemical substance (yeast gene YMR009W): 1.9
- The level of expressed mRNA in the presence of chemical substance/The level of expressed mRNA in the absence of chemical substance (yeast gene YMR067C): 1.2
- level of expressed mRNA in the presence of chemical substance / level in the absence of chemical substance (yeast gene YMR068W): 1.5
- level of expressed mRNA in the presence of chemical substance / level in the absence of chemical substance (yeast gene YMR071C): 1.8
- The level of expressed mRNA in the presence of chemical substance/The level of expressed mRNA in the absence of chemical substance (yeast gene YMR090W): 2.7
- The level of expressed mRNA in the presence of chemical substance/The level of expressed mRNA in the absence of chemical substance (yeast gene YMR095C): 1.2
- The level of expressed mRNA in the presence of chemical substance/The level of expressed mRNA in the absence of chemical substance (yeast gene YMR097C): 1.5
- The level of expressed mRNA in the presence of chemical substance/The level of expressed mRNA in the absence of chemical substance (yeast gene YMR102C): 1.8
- The level of expressed mRNA in the presence of chemical substance/The level of expressed mRNA in the absence of chemical substance (yeast gene YMR107W): 1.2
- level of expressed mRNA in the presence of chemical substance / level in the absence of chemical substance (yeast gene YMR160W): 1.0
- The level of expressed mRNA in the presence of chemical substance/The level of expressed mRNA in the absence of chemical substance (yeast gene YMR180C): 1.7
- The level of expressed mRNA in the presence of chemical substance/The level of expressed mRNA in the absence of chemical substance (yeast gene YMR184W): 1.6
- The level of expressed mRNA in the presence of chemical substance/The level of expressed mRNA in the absence of chemical substance (yeast gene YMR191W): 2.0
- The level of expressed mRNA in the presence of chemical substance/The level of expressed mRNA in the absence of chemical substance (yeast gene YMR295C): 1.3
- The level of expressed mRNA in the presence of chemical substance/The level of expressed mRNA in the absence of chemical substance (yeast gene YMR316W): 2.0
- level of expressed mRNA in the presence of chemical substance / level in the absence of chemical substance (yeast gene YNL026W): 1.5
- The level of expressed mRNA in the presence of chemical substance/The level of expressed mRNA in the absence of chemical substance (yeast gene YNL044W): 0.9
